# US11179412B2, “Methods of treating conditions involving elevated inflammatory response” (University of Pittsburgh—Of the Commonwealth System of …, priority 2017, dated 2021)
# Structures can show the parent of a compound that is named as a salt. Where two headings read alike, the source gives them in different places.
# Tested on: STING activation (IFNβ release) in iBMDMs
# Assay: IFNβ release ELISA after STING ligand (or LPS) stimulation, iBMDMs
# Type: cell-based, mouse
# Outline: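 IFNβ released into the medium was quantified by ELISA (mouse or human kit) after iBMDM stimulation with the canonical STING agonist 3′3′-cGAMP or with LPS.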
# [1] = iBMDMs, 3′3′-cGAMP 10 μg/ml, 16 hours, compound 10 μM
smiles,measurement,setting,value
NCC(=O)Nc1ccc(-n2nc(C(F)(F)F)cc2-c2ccc3c(ccc4ccccc43)c2)cc1 [OSU-03012 (AR-12)],fold increase in IFN-β release,[1],0.31 fold
Cc1sc2c(c1C)C(c1ccc(Cl)cc1)=N[C@@H](CC(=O)Nc1ccc(O)cc1)c1nnc(C)n1-2 [OTX015],fold increase in IFN-β release,[1],0.43 fold
"CC(C)(F)C[C@H](N[C@@H](c1ccc(-c2ccc(S(C)(=O)=O)cc2)cc1)C(F)(F)F)C(=O)NC1(C#N)CC1 [Odanacatib (MK-0822), Odanacatib]",fold increase in IFN-β release,[1],0.90 fold
CC[C@@H]1/C=C/C=C/C[C@H](C)[C@H](O)[C@](C)(O)C(=O)[C@H](C)[C@@H](O)[C@H](C)C(=O)[C@H](C)[C@@H](O)[C@H](C)/C=C/C(=O)O[C@H]2[C@@H](C)[C@@H](CC1)O[C@@]1(CC[C@@H](C)[C@@H](C[C@H](C)O)O1)[C@@H]2C [Oligomycin A],fold increase in IFN-β release,[1],2.49 fold
CCc1c(C(=O)NCCc2ccc(N3CCCCC3)cc2)[nH]c2ccc(Cl)cc12 [Org 27569],fold increase in IFN-β release,[1],1.74 fold
OCCOc1ccc(/C(=C(/CCCl)c2ccccc2)c2ccccc2)cc1 [Ospemifene],fold increase in IFN-β release,,0.10 fold
C[C@@H]1O[C@@H](O[C@H]2C[C@@H](O)[C@]3(CO)[C@H]4[C@H](O)C[C@]5(C)[C@@H](C6=CC(=O)OC6)CC[C@]5(O)[C@@H]4CC[C@]3(O)C2)[C@H](O)[C@H](O)[C@H]1O [Ouabain],fold increase in IFN-β release,[1],1.08 fold
NC(=O)N1c2ccccc2CC(=O)c2ccccc21 [Oxcarbazepine],fold increase in IFN-β release,[1],5.22 fold
Cc1cc(C(C)(C)C)c(O)c(C)c1CC1=NCCN1 [Oxymetazoline HCl],fold increase in IFN-β release,[1],1.16 fold
O=C(O)/C=C/c1ccc(Cn2ccnc2)cc1 [Ozagrel HCl],fold increase in IFN-β release,"iBMDMs, 3′3′-cGAMP 10 μg/ml, 16 hours, compound 10 μM, HCl",2.13 fold
O=C(O)/C=C/c1ccc(Cn2ccnc2)cc1 [Ozagrel],fold increase in IFN-β release,[1],0.11 fold
CC(=O)c1cc([N+](=O)[O-])c(Sc2ccc(F)cc2F)s1 [P22077],fold increase in IFN-β release,[1],0.35 fold
C=CCc1cccc(/C=N/NC(=O)CN2CCN(Cc3ccccc3)CC2)c1O [PAC-1],fold increase in IFN-β release,[1],0.17 fold
O=C(NOCC1CC1)c1ccc(F)c(F)c1Nc1ccc(I)cc1Cl [PD184352 (CI-1040)],fold increase in IFN-β release,[1],0.94 fold
O=C(NOC[C@H](O)CO)c1ccc(F)c(F)c1Nc1ccc(I)cc1F [PD0325901],fold increase in IFN-β release,[1],0.39 fold
O=C(O)/C(S)=C/c1c[nH]c2ccc(F)cc12 [PD 151746],fold increase in IFN-β release,[1],1.92 fold
O=C(Nc1cccnc1)N1CCC(Cc2cccc(Oc3ccc(C(F)(F)F)cn3)c2)CC1 [PF-3845],fold increase in IFN-β release,[1],2.14 fold
CN(c1ncccc1CNc1nc(Nc2ccc3c(c2)CC(=O)N3)ncc1C(F)(F)F)S(C)(=O)=O [PF-562271],fold increase in IFN-β release,[1],0.21 fold
CS(=O)(=O)c1cccc(CNc2nc(Nc3ccc4c(c3)CCC(=O)N4)ncc2C(F)(F)F)c1 [PF-573228],fold increase in IFN-β release,[1],0.87 fold
OCCn1cc(-c2cnc3nnn(Cc4ccc5ncccc5c4)c3n2)cn1 [PF-04217903],fold increase in IFN-β release,[1],1.49 fold
CCc1cncnc1N1CCN(Cc2nc3ccc(C(F)(F)F)cc3[nH]2)CC1 [PF-4708671],fold increase in IFN-β release,[1],2.12 fold
Cc1cnc(-c2cc(N3CCN(C(=O)CCS(C)(=O)=O)CC3)ncc2Cl)c(C)c1 [PF-5274857],fold increase in IFN-β release,[1],0.16 fold
COc1ccccc1S(=O)(=O)Nc1ccc2c(c1)CN(C)C(=O)N2 [PFI-1 (PF-6405761)],fold increase in IFN-β release,[1],0.52 fold
O=C(/C=C/c1ccc2ccccc2n1)c1ccncc1 [PFK15],fold increase in IFN-β release,[1],0.68 fold
Cc1[nH]c(/C=C2\C(=O)Nc3ccc(S(=O)(=O)Cc4c(Cl)cccc4Cl)cc32)c(C)c1C(=O)N1CCC[C@@H]1CN1CCCC1 [PHA-665752],fold increase in IFN-β release,[1],0.43 fold
CC(C)CC(=O)Nc1[nH]nc2c1CN(C(=O)C1CCN(C)CC1)C2(C)C [PHA-793887],fold increase in IFN-β release,[1],2.28 fold
CCCc1ccc(OCC(=O)N(Cc2nc(-c3cccnc3)no2)C(C)C)cc1 [PI-1840],fold increase in IFN-β release,[1],0.60 fold
COc1cc(OC)c(NC(=O)Nc2cc(C)on2)cc1Cl [PNU-120596],fold increase in IFN-β release,[1],0.12 fold
CC(C)(C)n1nc(-c2ccc(Cl)cc2)c2c(N)ncnc21 [PP2],fold increase in IFN-β release,[1],0.14 fold
N#CSc1cc(SC#N)c(N)nc1N [PR-619],fold increase in IFN-β release,[1],0.79 fold
Br.COc1cc(Br)c(Nc2nc(-c3c(C)nc4ncccn34)cs2)c(Br)c1 [PTC-209 HBr],fold increase in IFN-β release,[1],0.27 fold
COc1cc(Br)c(Nc2nc(-c3c(C)nc4ncccn34)cs2)c(Br)c1 [PTC-209],fold increase in IFN-β release,[1],2.11 fold
CC(C)NCCCn1c(Sc2cc3c(cc2I)OCO3)nc2c(N)ncnc21 [PU-H71],fold increase in IFN-β release,[1],1.13 fold
CCOC(=O)c1ccc(N2NC(=O)/C(=C/c3ccc([N+](=O)[O-])o3)C2=O)cc1 [PYR-41],fold increase in IFN-β release,[1],1.13 fold
"C1=C/COCc2cc(ccc2OCCN2CCCC2)Nc2nccc(n2)-c2cccc(c2)COC/1 [Pacritinib (SB1518), Pacritinib]",fold increase in IFN-β release,[1],1.58 fold
"CC(=O)c1c(C)c2cnc(Nc3ccc(N4CCNCC4)cn3)nc2n(C2CCCC2)c1=O [Palbociclib (PD-0332991) HCl, Palbociclib]",fold increase in IFN-β release,[1],0.94 fold
CC(=O)O[C@H]1C[C@@H]2CC[C@@H]3[C@H](CC[C@@]4(C)[C@H]3C[C@H]([N+]3(C)CCCCC3)[C@@H]4OC(C)=O)[C@@]2(C)C[C@@H]1[N+]1(C)CCCCC1.[Br-].[Br-] [Pancuronium dibromide],fold increase in IFN-β release,[1],1.20 fold
"Cc1[nH]c2ccccc2c1CCNCc1ccc(/C=C/C(=O)NO)cc1 [Panobinostat (LBH589), Panobinostat]",fold increase in IFN-β release,[1],0.61 fold
Oc1cc(O)cc(/C=C/c2ccc(O)c(O)c2)c1 [Piceatannol],fold increase in IFN-β release,[1],0.42 fold
COc1ccc(-c2nc3ccc(C4=NNC(=O)CC4C)cc3[nH]2)cc1 (stereo not shown) [Pimobendan],fold increase in IFN-β release,[1],1.79 fold
O=C(NNc1ccccc1)c1ccncc1 [PluriSln #1 (NSC 14613)],fold increase in IFN-β release,[1],0.62 fold
Nc1cccc2c1C(=O)N(C1CCC(=O)NC1=O)C2=O (stereo not shown) [Pomalidomide],fold increase in IFN-β release,[1],2.12 fold
C#CCC(Cc1cnc2nc(N)nc(N)c2n1)c1ccc(C(=O)N[C@@H](CCC(=O)O)C(=O)O)cc1 (stereo partly shown) [Pralatrexate],fold increase in IFN-β release,[1],4.31 fold
CCCN[C@H]1CCc2nc(N)sc2C1 [Pramipexole],fold increase in IFN-β release,[1],2.07 fold
CC(C)NCC(O)COc1cccc2ccccc12 (stereo not shown) [Propranolol HCl],fold increase in IFN-β release,[1],2.07 fold
CCc1nc(N)nc(N)c1-c1ccc(Cl)cc1 [Pyrimethamine],fold increase in IFN-β release,[1],5.22 fold
"CC(C)(C)c1cc(NC(=O)Nc2ccc(-c3cn4c(n3)sc3cc(OCCN5CCOCC5)ccc34)cc2)no1 [Quizartinib (AC220), Quizartinib]",fold increase in IFN-β release,[1],0.91 fold
O=C(NCc1cccc(O)c1)Nc1nc(-c2ccncc2)cs1 [RKI-1447],fold increase in IFN-β release,[1],2.41 fold
"Cc1nnc(C(=O)NC(C)(C)c2nc(C(=O)NCc3ccc(F)cc3)c(O)c(=O)n2C)o1 [Raltegravir (MK-0518), Raltegravir]",fold increase in IFN-β release,[1],4.80 fold
CCC(=O)NCC[C@@H]1CCc2ccc3c(c21)CCO3 [Ramelteon],fold increase in IFN-β release,[1],0.56 fold
CNC(=C[N+](=O)[O-])NCCSCc1ccc(CN(C)C)o1 [Ranitidine],fold increase in IFN-β release,[1],2.87 fold
C#CCN[C@@H]1CCc2ccccc21 [Rasagiline Mesylate],fold increase in IFN-β release,[1],1.77 fold
O=C(NC(Cc1cc(=O)[nH]c2ccccc12)C(=O)O)c1ccc(Cl)cc1 (stereo not shown) [Rebamipide],fold increase in IFN-β release,[1],2.54 fold
"COc1cc(F)c(F)c(Nc2ccc(I)cc2F)c1NS(=O)(=O)C1(C[C@H](O)CO)CC1 [Refametinib (RDEA119, Bay 86-9766), Refametinib]",fold increase in IFN-β release,[1],0.64 fold
Cc1cccc(-c2[nH]ncc2-c2ccc3ncccc3n2)n1 [RepSox],fold increase in IFN-β release,,0.99 fold
"CO[C@H]1C[C@@H]2CC[C@@H](C)[C@@](O)(O2)C(=O)C(=O)N2CCCC[C@H]2C(=O)O[C@H]([C@H](C)C[C@@H]2CC[C@@H](OP(C)(C)=O)[C@H](OC)C2)CC(=O)[C@H](C)/C=C(\C)[C@@H](O)[C@@H](OC)C(=O)[C@H](C)C[C@H](C)/C=C/C=C/C=C/1C [Ridaforolimus (Deforolimus, MK-8669), Ridaforolimus]",fold increase in IFN-β release,[1],0.58 fold
"COc1cc(OC)c(/C=C/S(=O)(=O)Cc2ccc(OC)c(NCC(=O)O)c2)c(OC)c1 [Rigosertib (ON-01910), Rigosertib]",fold increase in IFN-β release,[1],0.96 fold
Cc1c(C(=O)NN2CCCCC2)nn(-c2ccc(Cl)cc2Cl)c1-c1ccc(Cl)cc1 [Rimonabant],fold increase in IFN-β release,[1],0.81 fold
O=C(NC[C@H]1CN(c2ccc(N3CCOCC3=O)cc2)C(=O)O1)c1ccc(Cl)s1 [Rivaroxaban],fold increase in IFN-β release,[1],0.54 fold
CN(C)CCc1c[nH]c2ccc(Cn3cncn3)cc12 [Rizatriptan Benzoate],fold increase in IFN-β release,[1],2.85 fold
COc1cc(C(=O)NC2CCN(C)CC2)ccc1Nc1ncc2c(n1)N(C1CCCC1)CC(F)(F)C(=O)N2C [Ro3280],fold increase in IFN-β release,[1],2.16 fold
COc1ccc(C2CNC(=O)C2)cc1OC1CCCC1 (stereo not shown) [Rolipram],fold increase in IFN-β release,[1],1.85 fold
COc1cc2c(cc1OC)[C@@H]1Cc3ccc(OC)c(OC)c3CN1CC2 [Rotundine],fold increase in IFN-β release,[1],0.54 fold
CC(=O)OCC(=O)NCCCOc1cccc(CN2CCCCC2)c1 [Roxatidine Acetate HCl],fold increase in IFN-β release,[1],3.16 fold
"N#CC[C@H](C1CCCC1)n1cc(-c2ncnc3[nH]ccc23)cn1 [Ruxolitinib (INCB018424), Ruxolitinib]",fold increase in IFN-β release,[1],0.20 fold
Cc1nn(-c2ccccc2)c(C)c1/C=N/N1CCN(Cc2ccccc2)CC1 [SANT-1],fold increase in IFN-β release,[1],1.49 fold
CCn1c(N)c(C(=O)NC)c(=O)c2ccc(C#C[C@@](C)(O)COC)nc21 [SAR131675],fold increase in IFN-β release,[1],1.13 fold
